Experimental data as given in US20260216057A1, “PHARMACEUTICAL COMPOSITIONS FOR HERPES VIRUS” (priority 2022, published 2026).

Assay: Example 11: Compound 1 (Form A) aqueous suspension SC PK study in monkey
Type: in vivo, male cynomolgus monkeys
Details: 10 mg/kg, following an initial drug burst
Protocol: An aqueous suspension of Compound 1 free form (Form A) in a 0.9% NaCl+0.5% polysorbate 80 vehicle at a concentration of 3.0 mg/mL was prepared as follows: • 1) Vehicle (0.9% w/w NaCl and 0.5% w/w polysorbate 80) was prepared by dissolving NaCl and polysorbate 80 in water. • 2) Appropriate amount of Compound 1 was weighed and added to the vehicle. • 3) The mixture was stirred for 15 minutes, then vortexed for 1 minute and then sonicated for 10 minutes. • 4) The final dosing formulation was a homogenous white cloudy suspension.
Male non-naïve Cyno Monkeys with ~4-6 kg body weight were used for the monkey PK study. The animals had free access to food and water. The prepared suspension was administered via subcutaneous injection to each animal group (n=3) with a dosing volume of 3.33 mL/kg to achieve a 10 mg/kg dose.
At each time point, approximately 0.5 mL whole blood was collected via the cephalic and saphenous vein into K2EDTA tubes. Blood samples were put on to ice and centrifuged at 2000 g for 5 min to obtain plasma sample within 15 minutes. Plasma samples were stored at approximately −70° C. until analyzed by LC-MS.

prolonged exposure out to: at least 220 days
SMILES: Cc1nc(N2CCCN(c3ccc(-c4cc(F)ccc4F)cc3)C2=O)sc1S(N)(=O)=O [Compound 1, 2-(3-(2′,5′-difluoro-[1,1′-biphenyl]-4-yl)-2-oxotetrahydropyrimidin-1(2H)-yl)-4-methylthiazole-5-sulfonamide]
